From ChEMBL document CHEMBL6153132 (J Med Chem, 2025)
Calls of active or inactive are those of the source. The calls are words filed in the database; no cut-off is given here.

Assays:
[1] = cells; conditions: Homo sapiens, Cal27CisR, 72 h
[2] = molecular target: Histone deacetylase 3 (Homo sapiens, UniProt O15379); assay: Inhibition of human HDAC3 using ZMAL(Z-Lys(Ac)-AMC as substrate preincubated for 60 mins followed by substrate addition and measured after 90 mins by microplate reader analysis
[3] = molecular target: T1, Protein deacetylase HDAC6 (Homo sapiens, UniProt Q9UBN7); assay: Inhibition of human HDAC6 using ZMAL(Z-Lys(Ac)-AMC as substrate preincubated for 15 mins followed by substrate addition and measured after 90 mins by microplate reader analysis
T1 sequence (Q9UBN7 whole entry): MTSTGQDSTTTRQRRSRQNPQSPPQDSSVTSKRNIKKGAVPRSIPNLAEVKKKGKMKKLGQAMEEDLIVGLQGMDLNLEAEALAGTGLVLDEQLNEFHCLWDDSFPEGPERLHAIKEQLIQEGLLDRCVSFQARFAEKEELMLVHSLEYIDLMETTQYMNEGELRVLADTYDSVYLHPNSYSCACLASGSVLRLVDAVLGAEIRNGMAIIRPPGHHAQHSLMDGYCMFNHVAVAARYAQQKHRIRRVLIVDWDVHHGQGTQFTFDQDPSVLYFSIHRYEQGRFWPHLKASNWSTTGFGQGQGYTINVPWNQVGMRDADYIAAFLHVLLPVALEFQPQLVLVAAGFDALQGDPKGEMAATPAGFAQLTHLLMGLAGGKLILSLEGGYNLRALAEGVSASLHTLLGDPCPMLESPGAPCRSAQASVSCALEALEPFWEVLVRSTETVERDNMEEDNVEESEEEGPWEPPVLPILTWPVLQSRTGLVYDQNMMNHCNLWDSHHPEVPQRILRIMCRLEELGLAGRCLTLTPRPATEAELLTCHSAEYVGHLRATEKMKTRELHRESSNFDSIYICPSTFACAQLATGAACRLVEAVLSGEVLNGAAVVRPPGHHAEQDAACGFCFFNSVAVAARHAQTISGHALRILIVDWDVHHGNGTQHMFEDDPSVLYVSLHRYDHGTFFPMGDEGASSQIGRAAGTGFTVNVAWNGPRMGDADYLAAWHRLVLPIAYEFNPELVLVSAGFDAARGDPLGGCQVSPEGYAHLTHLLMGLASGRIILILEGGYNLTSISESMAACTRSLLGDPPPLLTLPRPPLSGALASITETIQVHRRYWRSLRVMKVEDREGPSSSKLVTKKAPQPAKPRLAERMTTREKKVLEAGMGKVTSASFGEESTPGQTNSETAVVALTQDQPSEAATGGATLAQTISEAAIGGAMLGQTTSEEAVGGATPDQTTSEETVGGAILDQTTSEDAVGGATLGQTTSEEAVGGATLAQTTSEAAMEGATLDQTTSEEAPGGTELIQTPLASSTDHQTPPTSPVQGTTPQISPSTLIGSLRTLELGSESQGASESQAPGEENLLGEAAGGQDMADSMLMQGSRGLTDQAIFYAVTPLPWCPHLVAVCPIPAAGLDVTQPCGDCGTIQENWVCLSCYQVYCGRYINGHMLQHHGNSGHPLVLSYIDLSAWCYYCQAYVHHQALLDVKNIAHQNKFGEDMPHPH

[4] = test system: Plasmodium falciparum; assay: microbe, parasite or virus in culture; conditions: 3D7, 72 h
[5] = test system: Plasmodium falciparum; assay: microbe, parasite or virus in culture; conditions: Dd2, 72 h
[6] = test system: CAL-27; assay: cells; conditions: Homo sapiens, CAL-27, 72 h
[7] = molecular target: Histone deacetylase 1 (Homo sapiens, UniProt Q13547); assay: Inhibition of human HDAC1 using ZMAL(Z-Lys(Ac)-AMC as substrate preincubated for 60 mins followed by substrate addition and measured after 90 mins by microplate reader analysis
[8] = Metabolic stability in human liver microsome assessed as half life; format: ADME, microsomes
[9] = Metabolic stability in human liver microsome assessed as intrinsic clearance; format: ADME; conditions: microsomes
[10] = test system: CAL-27; assay: Cytotoxicity against human CAL-27 cells assessed as cell viability incubated for 72 hrs by MTS assay; format: functional, cell-based; conditions: CAL-27, 72 h
[11] = Cytotoxicity against human Cal27CisR cells assessed as cell viability incubated for 72 hrs by MTS assay; format: functional, cell-based
[12] = test system: A2780cisR; assay: Cytotoxicity against human A2780 cisR cells assessed as cell viability up to 100 uM incubated for 72 hrs by MTS assay; format: functional, cell-based
[13] = test system: A2780; assay: Cytotoxicity against human A2780 cells assessed as cell viability incubated for 72 hrs by MTS assay; format: functional, cell-based; conditions: A2780, 72 h

Sequence of Histone deacetylase 3 (O15379 whole entry): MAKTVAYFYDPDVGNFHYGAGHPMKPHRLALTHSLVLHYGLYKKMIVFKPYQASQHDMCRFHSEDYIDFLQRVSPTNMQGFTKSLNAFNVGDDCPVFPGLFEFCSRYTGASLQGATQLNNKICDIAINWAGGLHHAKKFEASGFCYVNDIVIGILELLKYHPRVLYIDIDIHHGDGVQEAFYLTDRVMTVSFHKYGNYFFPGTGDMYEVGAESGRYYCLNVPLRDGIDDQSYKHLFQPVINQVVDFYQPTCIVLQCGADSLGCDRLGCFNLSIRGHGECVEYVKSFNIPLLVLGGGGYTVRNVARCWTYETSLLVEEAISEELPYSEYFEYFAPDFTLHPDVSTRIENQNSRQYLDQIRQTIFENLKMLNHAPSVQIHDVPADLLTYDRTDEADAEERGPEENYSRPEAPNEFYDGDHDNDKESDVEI
Sequence of Histone deacetylase 1 (Q13547 whole entry): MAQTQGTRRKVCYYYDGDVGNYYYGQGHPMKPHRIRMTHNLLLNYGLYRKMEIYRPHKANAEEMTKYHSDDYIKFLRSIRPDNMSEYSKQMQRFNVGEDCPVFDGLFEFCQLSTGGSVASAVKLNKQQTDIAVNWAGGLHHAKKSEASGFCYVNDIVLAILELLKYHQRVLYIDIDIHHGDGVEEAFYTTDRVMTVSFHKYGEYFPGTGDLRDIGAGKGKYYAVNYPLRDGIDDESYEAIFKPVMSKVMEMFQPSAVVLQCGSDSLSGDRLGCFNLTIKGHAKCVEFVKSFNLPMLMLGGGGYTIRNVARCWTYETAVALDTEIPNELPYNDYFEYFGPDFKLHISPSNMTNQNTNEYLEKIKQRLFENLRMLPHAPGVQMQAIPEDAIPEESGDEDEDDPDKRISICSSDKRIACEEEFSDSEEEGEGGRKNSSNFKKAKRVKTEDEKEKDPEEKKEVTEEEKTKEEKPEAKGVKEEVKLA

Structure (SMILES)	IC50 [1]	IC50 [2]	IC50 [3]	IC50 [4]	IC50 [5]	IC50 [6]	IC50 [7]	t1/2 ([8]; microsomes)	CLH [9]	half-life ([8]; liver microsomes)	IC50 [10]	IC50 [11]	Activity [12]	IC50 [13]
CSc1ccccc1C(=O)NCCCCCCCN(CC(=O)NCc1ccccc1)C(=O)c1ccc(N(C)C)cc1	> 100 µM	> 10 µM	> 10 µM	34.9 µM	23 µM	70.9 µM	> 10 µM	–	–	–	–	–	–	–
CN(C)c1ccc(C(=O)N(CCCCCC(=O)O)CC(=O)NCc2ccccc2)cc1	> 100 µM	–	> 10 µM	> 100 µM	> 100 µM	> 100 µM	> 10 µM	–	–	–	–	–	–	–
CCCNNC(=O)c1ccc(CN(CC(=O)NCc2ccccc2)C(=O)c2ccc(N(C)C)cc2)cc1	–	–	–	–	–	–	–	15.04 min	92.2 µL/min/mg	–	–	–	–	–
CNC(=O)CCCCCN(CC(=O)NCc1ccccc1)C(=O)c1ccc(N(C)C)cc1	> 100 µM	–	> 10 µM	> 100 µM	> 100 µM	> 100 µM	> 10 µM	–	–	–	–	–	–	–
CC(=O)SCC(=O)Nc1ccc(CN(CC(=O)NCc2ccccc2)C(=O)c2ccc(N(C)C)cc2)cc1	> 100 µM	–	–	> 100 µM	> 100 µM	> 100 µM	–	–	–	–	–	–	–	–
CSc1ccccc1NC(=O)CCCCCN(CC(=O)NCc1ccccc1)C(=O)c1ccc(N(C)C)cc1	61.3 µM	> 10 µM	> 10 µM	56.9 µM	28.7 µM	79.4 µM	> 10 µM	–	–	–	–	–	–	–
CN(C)c1ccc(C(=O)N(CC(=O)NCc2ccccc2)Cc2ccc(C(=O)O)cc2)cc1	> 100 µM	–	> 10 µM	> 100 µM	> 100 µM	74.3 µM	13.8 µM	–	–	–	–	–	–	–
CN(C)c1ccc(C(=O)N(CC(=O)NCc2ccccc2)Cc2ccc(C(=O)Nc3ccccc3N)cc2)cc1	–	–	–	–	–	–	–	–	79.4 µL/min/mg	17.5 min	–	–	–	–
CN(C)c1ccc(C(=O)N(CC(=O)NCc2ccccc2)Cc2ccc(C(=O)NCCSSCCNC(=O)c3ccc(CN(CC(=O)NCc4ccccc4)C(=O)c4ccc(N(C)C)cc4)cc3)cc2)cc1	> 100 µM	–	> 10 µM	> 100 µM	> 100 µM	> 100 µM	4.54 µM	–	–	–	–	–	–	–
CC(=O)SCC(=O)NCCCCCCN(CC(=O)NCc1ccccc1)C(=O)c1ccc(N(C)C)cc1	28.8 µM	–	–	> 100 µM	85.1 µM	33.4 µM	–	–	–	–	–	–	–	–
CSc1ccccc1C(=O)NCCCCCCN(CC(=O)NCc1ccccc1)C(=O)c1ccc(N(C)C)cc1	65.6 µM	> 10 µM	> 10 µM	8.97 µM	6.66 µM	68.9 µM	> 10 µM	–	–	–	–	–	–	–
CN(C)c1ccc(C(=O)N(CC(=O)NCc2ccccc2)Cc2ccc(-c3nnc(C(F)(F)F)o3)cc2)cc1	> 100 µM	–	> 10 µM	34.2 µM	36.8 µM	> 100 µM	> 10 µM	–	–	–	–	–	–	–
CSc1ccccc1C(=O)Nc1ccc(CN(CC(=O)NCc2ccccc2)C(=O)c2ccc(N(C)C)cc2)cc1	> 100 µM	> 10 µM	> 10 µM	> 100 µM	–	> 100 µM	> 10 µM	–	–	–	–	–	–	–
Nc1cc(F)ccc1NC(=O)/C=C/c1cnn(C/C=C/c2ccccc2)c1	–	–	–	–	–	–	–	–	–	–	43.1 µM	49.4 µM	inactive	12.9 µM
CN(C)c1ccc(C(=O)N(CC(=O)NCc2ccccc2)Cc2ccc(-c3nnc(C(F)F)o3)cc2)cc1	> 100 µM	–	> 10 µM	18.1 µM	23.7 µM	> 100 µM	> 10 µM	–	–	–	–	–	–	–
CSc1ccccc1C(=O)NCCCCCN(CC(=O)NCc1ccccc1)C(=O)c1ccc(N(C)C)cc1	55 µM	> 10 µM	> 10 µM	–	37.6 µM	63.7 µM	> 10 µM	–	–	–	–	–	–	–
CN(C)c1ccc(C(=O)N(CCCCCCNC(=O)c2ccccc2O)CC(=O)NCc2ccccc2)cc1	> 100 µM	–	> 10 µM	–	–	–	> 10 µM	–	–	–	–	–	–	–
CN(C)c1ccc(C(=O)N(CCCCCC(=O)NCCSSCCNC(=O)CCCCCN(CC(=O)NCc2ccccc2)C(=O)c2ccc(N(C)C)cc2)CC(=O)NCc2ccccc2)cc1	> 100 µM	–	> 10 µM	11.7 µM	> 100 µM	98.7 µM	7.1 µM	–	–	–	–	–	–	–
